Data on 3 molecules can be found in patent US11357786B2, “Synthetic disugar hydrocarbons as natural analogs to control microbial behaviors” (Syracuse University, priority 2014, dated 2022).

Like-named read-outs stand apart in the source and are kept apart here.

The test system of experiment [1] is wild type PAO1. Kind of experiment: Swarming motility of wild type PAO1 on soft agar (antagonist assay). The class given is cell-based, Pseudomonas aeruginosa. The settings on record: for Swarming of wild type PAO1: 110 μM in soft agar; for Concentration of activity reversal for swarming inhibition of PAO1 (transition concentration): soft agar; for Effect on PAO1 swarming: concentration not given. The method in brief: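 Wild-type PAO1 culture (OD600 ~0.4–0.6, 3 μl) spotted on M8 swarm agar with 0.2% glucose, 0.5% casamino acids, 1 mM MgSO4 and 0.5% agar. Plates incubated 12 h at 37 °C then 12 h at room temperature; swarm area measured by cutting and weighing printed plate images.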

The subject of experiment [2] is 1-day old PAO1 biofilm. Kind of experiment: Crystal violet assay for dispersion of 1-day old biofilm, DSHs (Examples 2 and 4). It is filed as cell-based, Pseudomonas aeruginosa. Here is the method:
The effect that DSHs have on the adhesion of PAO1-EGFP on polystyrene surface (microtiter plate) was also examined. PAO1-EGFP is a P. aeruginosa strain that constitutively expresses green fluorescent protein. In the adhesion assays, PAO1-EGFP was grown in microtiter plate for 24-hours in LB-media with (160 μM) or without DSHs. After 24-hours, the fluorescent signal obtained from surface adhered PAO1-EGFP was measured. Percent reduction in fluorescence was calculated by comparing fluorescent signal from PAO1-EGFP grown in LB-media with the signal from wells that had DSHs (FIG. 29A). To study the effect of DSHs on biofilm formation, Pseudomonas aeruginosa (PAO1) was grown in LB-media with (160 μM) or without DSHs at 37° C. under static conditions within wells of microtiter plates. After 24 hours, the surface attached biofilms adhering to the bottom of the wells were stained with crystal-violet dye and the biofilm was quantified by measuring absorbance at 600 nm (OD600). The percent inhibition was calculated by comparing biofilm content of wells with no added agents (control) with the biofilm content from wells that had 160 μM of DSHs (FIG. 29A). Similar to inhibition, the surface attached biofilm after dispersion with DSHs was quantified with crystal-violet staining and absorbance measurement at 600 nm, except that for dispersion, biofilm was first grown for 1 day in just LB-media without any DSHs after which DSHs were added and plates were incubated for additional 24 hours followed by quantification (FIG. 29B).
Crystal violet based assay for quantifying dispersion of 1-day old PAO1 biofilms were Plate for set up similar to inhibition assay with a slight modification. Wells of the micro-titer plate was inoculated with (200 μL) bacterial subculture (PAO1 subculture OD600 ˜0.1). The plates were incubated at 37° C. for 24 hours to allow biofilm formation. After 24 hours, bacterial culture was gently pipetted out and appropriate volume of DSH were added followed by addition of fresh LB medium (200 μL). The microtiter plate was incubated for an additional 24 hours at 37° C., following which, similar to work up of inhibition assay, culture was removed, wells were washed and CV-dye was introduced, followed by washing and destaining with 30% AcOH solution in water and quantification at 600 nm. Here again, only the surface attached biofilm dispersed was reported by comparing wells with DSHs with wells with no agent.
Dose dependence assays for biofilm inhibition and dispersion. […] Both for biofilm inhibition and dispersion, predetermined volumes of DSH stocks were added to the assigned wells to span a concentration range between 0.5 μM-170 μM. Percent biofilm inhibition of dispersion was calculated by comparing to wells with no agent. The percent biofilm inhibition or dispersion was plotted versus concentration of DSHs. The linear values were logarithmically curve fitted using equation […]. The half maximal inhibitory concentration for both biofilm inhibition and dispersion (IC50 and DC50) were thus obtained.

The mark [3] stands for this setting: Example 4, FIG. 31, read-out: Half-maximal dispersion concentration (DC50).
Setting [4] is: Example 2, FIG. 20, read-out: Biofilm dispersion DC50.

As to `CC(C)CCCC(C)CCCC(C)CCO[C@@H]1O[C@H](CO)[C@@H](O[C@H]2O[C@H](CO)[C@@H](O)[C@H](O)[C@H]2O)[C@H](O)[C@H]1O` (stereo partly drawn) [SFβM (14), saturated farnesyl-β-maltoside], in experiment [1], the “Concentration at which tendrils were induced in PAO1” value was approximately 7.5 µM. The “Swarming motility of wild type PAO1” value in experiment [1] (20 μM) is listed as “stronger inhibition than rhamnolipids”; in experiment [1] (85 μM in soft agar, 24 h) it was “inhibited the swarming motility of wild type PAO1”. In experiment [1] (24 h), the “Swarming of wild type PAO1” value is reported as “completely inhibited the swarming of wt PAO1”. The “Concentration of activity reversal for swarming inhibition of PAO1 (transition concentration)” value in experiment [1] is approximately 7.5 µM; in experiment [1] (listed as 14) it was 7.5 µM. In addition, the DC50 in experiment [2] (setting [3]) was approximately 126 µM.
Turning to `CC(C)CCCC(C)CCCC(C)CCO[C@H]1O[C@H](CO)[C@@H](O[C@@H]2O[C@H](CO)[C@@H](O)[C@H](O)[C@H]2O)[C@H](O)[C@H]1O` (stereo partly drawn) [SFαC (13), saturated farnesyl-α-cellobioside], the “Swarming motility of wild type PAO1” value in experiment [1] (85 μM in soft agar, 24 h) is reported as “inhibited the swarming motility of wild type PAO1”. In experiment [1] (24 h), the “Swarming of wild type PAO1” value is reported as “completely inhibited the swarming of wt PAO1”. Besides, in experiment [1], the “Effect on PAO1 swarming” value is listed as “inhibitors for PAO1 swarming motility”. Besides, the DC50 was approximately 78.4 µM in experiment [2] (setting [4]) and approximately 89 µM in experiment [2] (setting [3]).
Turning to `CC(C)CCCC(C)CCCC(C)CCO[C@@H]1O[C@H](CO)[C@@H](O[C@@H]2O[C@H](CO)[C@@H](O)[C@H](O)[C@H]2O)[C@H](O)[C@H]1O` (stereo partly drawn) [SFβC (12), saturated famesyl-β-cellobioside], the “Concentration exhibiting inhibition of PAO1 swarming” value in experiment [1] was more than 20 µM. For the same molecule, in experiment [1], the “Concentration exhibiting promotion of PAO1 swarming” value is less than 10 µM. The “Swarm ring of wild type PAO1 as percent of PAO1 without DSHs” value in experiment [1] (20 μM) was approximately 5%. For the same molecule, the “Swarming motility of wild type PAO1” value is listed as “did inhibit the swarming activity of wild type PAO1” in experiment [1] (20 μM); “stronger inhibition than rhamnolipids” in experiment [1] (20 μM, listed as 12); “inhibited the swarming motility of wild type PAO1” in experiment [1] (85 μM in soft agar, 24 h). Besides, in experiment [1] (20 μM, control 24 cm2), the “Swarm ring area of wild type PAO1” value is approximately 1.2 cm2. The “Swarming of wild type PAO1” value was “inhabits the swarming of wt PAO1” in experiment [1] (24 h, listed as 12: SFbC) and “completely inhibited the swarming of wt PAO1” in experiment [1] (24 h, listed as 12: SFβC). Moreover, the “Effect on PAO1 swarming” value in experiment [1] is listed as “inhibitors for PAO1 swarming motility”. Besides, the results for the “Concentration of activity reversal for swarming inhibition of PAO1 (transition concentration)” value in experiment [1] and in experiment [1] (listed as 12) were approximately 10 to 20 µM and 10 to 20 µM, respectively. Further, the DC50 in experiment [2] (setting [4]) was approximately 36.4 µM; in experiment [2] (setting [3]) it was approximately 44 µM.
